Laboratory results reported in publication PMC9995496, “A screen for MeCP2-TBL1 interaction inhibitors using a luminescence-based assay” (Scientific Reports, 2023).

Biological target: T1, MeCP2-TBL1 interaction (MeCP2-SmBiT / TBL1-LgBiT) (Mus musculus, UniProt Q9QXE7)
T1 construct: expressed in transfected cells; crude lysate used as a cell-free assay
T1 sequence (Q9QXE7 166-527): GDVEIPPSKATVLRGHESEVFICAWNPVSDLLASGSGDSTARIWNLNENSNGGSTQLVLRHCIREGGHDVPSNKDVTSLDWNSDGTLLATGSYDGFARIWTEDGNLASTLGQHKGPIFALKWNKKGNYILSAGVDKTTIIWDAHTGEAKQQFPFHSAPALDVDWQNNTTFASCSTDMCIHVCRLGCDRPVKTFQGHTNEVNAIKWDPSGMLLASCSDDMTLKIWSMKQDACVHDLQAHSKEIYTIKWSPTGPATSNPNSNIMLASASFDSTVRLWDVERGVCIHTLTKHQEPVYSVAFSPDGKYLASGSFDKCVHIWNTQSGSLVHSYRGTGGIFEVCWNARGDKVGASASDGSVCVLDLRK
Assay: MeCP2-TBL1 NanoLuc luciferase complementation assay (cell-free, extracts of transfected HEK293 cells);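 also: each compound tested at 20 µM final concentration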
Format: binding, human
Procedure, shortened: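 Cell-free split NanoLuc: lysate of HEK293 cells co-expressing the MeCP2 C-terminal half-SmBiT and TBL1 WD domain-LgBiT, mixed 1:1 with furimazine. After 30 min at room temperature, luminescence was plate-median normalized.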

[1] = primary screen of the Asinex library, sheet "Sargen output Asinex library", one well per compound
[2] = primary screen of the Asinex library, sheet "Sargen output Asinex library", one well per compound, Batch Ref. 1
[3] = primary screen of Asinex library, single well per compound

Inhibition percent [1] | Inhibition percent [2] | SMILES | other results
-2.69% | – | COc1ccc2c(c1)[C@H]1OCC3(CCN(Cc4cnccn4)CC3)C[C@@H]1C(C)(C)O2 [BDG_33690689] | –
1.04% | – | Cc1cnc(C(=O)N2CCC3(CC2)CO[C@@H]2c4ccc(O)cc4OC(C)(C)[C@H]2C3)cn1 [BDG_33691581] | –
– | -1.26% | CC1(C)Oc2cc(O)ccc2[C@H]2OCC3(CCN(C(=O)c4ncccc4O)CC3)C[C@@H]21 [BDG_33691662] | –
– | – | CCOc1cccc2c1OC(C)(C)[C@H]1CC3(CCN(Cc4cnc(NC)nc4)CC3)CO[C@H]21 [BDG_33691710] | Inhibition percent [3]: -4.17
– | – | COc1ccc2c(c1)OC(C)(C)[C@H]1CC3(CCN(C(=O)CCn4ccnc4)CC3)CO[C@H]21 [BDG_33691777] | Inhibition percent [3]: -0.71
– | 2.32% | CCc1cc(C(=O)N2CCC3(CC2)CO[C@@H]2c4cc(OC)ccc4OC(C)(C)[C@H]2C3)no1 [BDG_33691868] | –
– | -1.45% | Cc1ccc2c(c1)OC(C)(C)[C@H]1CC3(CCN(C(=O)CN4CCOCC4)CC3)CO[C@H]21 [BDG_33692107] | –
– | -1.50% | CC1(C)Oc2ccccc2[C@H]2OCC3(CCN(C(=O)CCc4cccnc4)CC3)C[C@@H]21 [BDG_33692190] | –
-2.47% | – | COc1cccc2c1OC(C)(C)[C@H]1CC3(CCN(C(=O)CCCc4ccncc4)CC3)CO[C@H]21 [BDG_33693373] | –
2.05% | – | Cc1n[nH]c(C)c1S(=O)(=O)N1CCC2(CC1)CO[C@@H]1c3ccccc3OC(C)(C)[C@H]1C2 [BDG_33694386] | –
– | – | CC1(C)Oc2ccc(Cl)cc2[C@H]2OCC3(CCN(C(=O)CNC(=O)c4ccccc4)CC3)C[C@@H]21 [BDG_33694526] | Inhibition percent [3]: -2.33
– | 2.01% | CC1(C)Oc2ccccc2[C@H]2OCC3(CCN(C(=O)c4[nH]nc5c4CCCCC5)CC3)C[C@@H]21 [BDG_33694755] | –
– | – | COc1cccc2c1OC(C)(C)[C@H]1CC3(CCN(C(=O)CCCN4C(=O)CNC4=O)CC3)CO[C@H]21 [BDG_33695254] | Inhibition percent [3]: -4.47
– | 0.97% | CC1(C)Oc2ccccc2[C@H]2OCC3(CCN(C(=O)c4cccc(-n5cnnc5)c4)CC3)C[C@@H]21 [BDG_33695504] | –
– | – | CC1(C)Oc2ccccc2[C@H]2OCC3(CCN(C(=O)c4ccnc(N5CCCC5)c4)CC3)C[C@@H]21 [BDG_33695760] | Inhibition percent [3]: 0.33
– | – | CCN(CC)S(=O)(=O)N1CCC2(C/C=C/Cc3ccccc3OCC(=O)NC2)CC1 [BDG_33697034] | Inhibition percent [3]: 1.72
– | -2.32% | COCC(=O)N1CC2(CO[C@@H]3c4cccc(OC)c4OC(C)(C)[C@H]3C2)C1 [BDG_33739062] | –
-0.50% | – | COc1cccc2c1OC(C)(C)[C@H]1CC3(CO[C@H]21)CN(Cc1cn(C)cn1)C3 [BDG_33739186] | –
– | 0.31% | Cc1cccnc1C(=O)N1CC2(CO[C@@H]3c4ccccc4OC(C)(C)[C@H]3C2)C1 [BDG_33739514] | –
– | -2.39% | Cc1ccc2c(c1)OC(C)(C)[C@H]1CC3(CO[C@H]21)CN(C(=O)CCn1nc(O)ccc1=O)C3 [BDG_33741109] | –
– | – | Cc1cc(C)n(CCCC(=O)N2CCCC[C@]3(C)NC(=O)CC[C@H]23)n1 [BDG_33850399] | Inhibition percent [3]: 0.88

Inhibition percent [1] | Inhibition percent [2] | SMILES | other results
3.83% | – | CC(C)(C)OC(=O)N1CC[C@H]2O[C@H]3c4ccccc4OC(C)(C)[C@@H]3C[C@@]2(CO)C1 [BDG_33896521] | –
– | 2.70% | CN(CCOc1ccccc1)C(=O)c1c(O)ccc2c1O[C@@H]1C[C@H]3C[C@H](C3(C)C)[C@]1(O)[C@H]2O [BDG_33899827] | –
-1.32% | – | COc1cccc2c1OC1(CCN(C)CC1)[C@H]1CCCO[C@H]21 [BDG_33900051] | –
– | 0.73% | Oc1cccc2c1OC1(CCN(Cc3ccccc3)CC1)[C@H]1CCCO[C@H]21 [BDG_33900148] | –
-3.60% | – | Oc1cccc2c1OC1(CCN(Cc3ccncc3)CC1)[C@H]1CCCO[C@H]21 [BDG_33900152] | –
– | 4.69% | Cc1ccc2c(c1)OC1(CCN(Cc3cscn3)CC1)[C@H]1CCCO[C@H]21 [BDG_33900204] | –
-2.79% | – | COC(C)(C)C(=O)N1CCC2(CC1)Oc1c(O)cccc1[C@H]1OCCC[C@@H]12 [BDG_33900229] | –
– | -2.85% | COc1cccc2c1OC1(CCN(C(=O)C(C)(C)OC)CC1)[C@H]1CCCO[C@H]21 [BDG_33900230] | –
– | 6.42% | COc1cccc2c1OC1(CCN(Cc3cccc(O)c3)CC1)[C@H]1CCCO[C@H]21 [BDG_33900272] | –
– | – | Cc1cnn(CC(=O)N2CCC3(CC2)Oc2ccc(Cl)cc2[C@H]2OCCC[C@@H]23)c1 [BDG_33900405] | Inhibition percent [3]: 5.31
– | – | Cc1ccc2c(c1)OC1(CCN(Cc3ccc(Cl)cn3)CC1)[C@H]1CCCO[C@H]21 [BDG_33900424] | Inhibition percent [3]: 0.92
– | 10.01% | COc1ccccc1C(=O)N1CCC2(CC1)Oc1ccc(Cl)cc1[C@H]1OCCC[C@@H]12 [BDG_33900472] | –
– | -0.96% | CS(=O)(=O)c1ccc(CN2CCC3(CC2)Oc2ccc(Cl)cc2[C@H]2OCCC[C@@H]23)cc1 [BDG_33900656] | –
-3.00% | – | CC(C)N1CC[C@H]2O[C@H]3c4ccccc4OC(C)(C)[C@@H]3C[C@H]21 [BDG_33900670] | –
0.0324% | – | COCC(=O)N1CC[C@H]2O[C@H]3c4ccccc4OC(C)(C)[C@@H]3C[C@H]21 [BDG_33900725] | –
– | – | CC1(C)Oc2ccccc2[C@@H]2O[C@@H]3CCN(C(=O)CCN4CCCC4=O)[C@@H]3C[C@H]21 [BDG_33901240] | Inhibition percent [3]: 0.48
-1.08% | – | Clc1ccc2c(c1)[C@H]1OCCC[C@@H]1C1(CCN(CC3CCOCC3)CC1)O2 [BDG_33901423] | –
– | 9.91% | C[C@@H]1CC[C@@H]2[C@@H](C1)c1c(ccc(C(=O)NCCN(C)C)c1O)OC2(C)C [BDG_33904603] | –
2.57% | – | C[C@@H]1CC[C@@H]2[C@@H](C1)c1c(ccc(C(=O)O)c1O)OC2(C)C [BDG_33904752] | –
– | – | CC(=O)N[C@H](CC(N)=O)C(=O)N1CC[C@@H]2O[C@@H]3c4ccccc4OC(C)(C)[C@H]3C[C@@H]2C1 [BDG_33905309] | Inhibition percent [3]: 0.54
– | -0.13% | CC(=O)N[C@@H](Cc1c[nH]c2ccccc12)C(=O)N1CC[C@H]2O[C@H]3c4cc(Cl)ccc4OC(C)(C)[C@@H]3C[C@H]2C1 [BDG_33905586] | –

Inhibition percent [1] | Inhibition percent [2] | SMILES | other results
0.74% | – | O=[N+]([O-])c1ccc2c(c1)[C@H]1OCCC[C@@H]1C1(CCCCC1)O2 [BDG_33907582] | –
2.11% | – | CC(C)(C)OC(=O)N1CC[C@H]2O[C@H]3c4ccc(O)cc4OC(C)(C)[C@@H]3C[C@@H]2C1 [BDG_33953342] | –
-3.58% | – | CC1(C)Oc2ccccc2[C@@H]2O[C@@H]3CCCN[C@@H]3C[C@H]21 [BDG_33956274] | –
-0.94% | – | CCOc1cccc2c1OC(C)(C)[C@@H]1C[C@@H]3CNCC[C@H]3O[C@@H]21 [BDG_33956280] | –
– | 5.54% | CC(C)=CCC[C@@]1(C)Oc2cc(OCCO)ccc2[C@H]2O[C@H]3CCN(C(=O)OC(C)(C)C)C[C@@H]3C[C@@H]21 [BDG_33958723] | –
0.05% | – | COc1cccc2c1OC(C)(C)[C@H]1CC3(CCNCC3)[C@H](C)O[C@H]21 [BDG_33959669] | –
– | -1.63% | CC(C)[C@H](NC(=O)[C@H](C)N)C(=O)N1CCC[C@H]2O[C@H]3c4cc(Cl)ccc4OC(C)(C)[C@@H]3C[C@H]21 [BDG_34017951] | –
– | – | C[C@@H]1CC[C@@H]2[C@@H](C1)c1c(ccc(C(=O)NCC(C)(C)CN3CCCC3)c1O)OC2(C)C [BDG_34018827] | Inhibition percent [3]: 1.80
-0.86% | – | C[C@@H]1CC[C@@H]2[C@@H](O1)c1cc(C(=O)NCCc3ccccc3)ccc1OC2(C)C [BDG_34018895] | –
– | – | CC(C)CCC[C@@]1(C)Oc2cc(O)ccc2[C@H]2OCC3(CCNCC3)C[C@@H]21 [BDG_34020305] | Inhibition percent [3]: 19.22
– | 1.89% | CC(C)CCC[C@]1(C)Oc2ccccc2[C@H]2OCC3(CCCN3)C[C@@H]21 (stereo partly drawn) [BDG_34020347] | –
2.58% | – | O=C(NCCc1ccccc1)[C@@H]1[C@H](O)[C@@H](c2ccc(F)cc2)CN1C(=O)CCc1ccc(Cl)cc1 [BDG_34023221] | –
– | 2.57% | COC(=O)C[C@H]1CC[C@H]2[C@H](O1)c1cc(-c3ccccc3)ccc1OC2(C)C [BDG_34023292] | –
– | -1.30% | COc1ccc2c(c1)OC(C)(C)[C@H]1CC[C@H](C)O[C@H]21 [BDG_34023313] | –
0.0122% | – | C[C@@H]1CC[C@@H]2[C@@H](O1)c1cc(OCc3ccccc3)c(C=O)cc1OC2(C)C [BDG_34027484] | –
-0.0357% | – | C[C@@H]1CC[C@@H]2[C@@H](O1)c1cc(OCc3ccccc3)c(CO)cc1OC2(C)C [BDG_34027487] | –
– | – | Cc1c(CN2C[C@H](c3ccc(F)cc3)[C@@H](O)[C@H]2C(=O)NCCc2ccccc2)[nH]c2ccc(F)cc12 [BDG_34027529] | Inhibition percent [3]: 6.14
7.44% | – | CC(C)C[C@H]1CN(C(=O)c2ccc(O)cc2)CC[C@H]1Nc1cccc(Cl)c1 [BDG_34030674] | –
– | 6.48% | CC1(C)Oc2ccc(O)cc2[C@H]2O[C@@H](c3ccccc3)CC[C@@H]21 [BDG_34039634] | –
– | – | CN(C)C(=O)[C@@H]1C[C@@H](n2cc(C(=O)NCCc3ccccc3)ccc2=O)[C@H](c2ccccc2)N1C [BDG_34039793] | Inhibition percent [3]: 1.80
– | – | CC1(C)Oc2ccc(OCc3ccccc3)cc2[C@@H]2O[C@H](CC(=O)O)CC[C@H]21 [BDG_34041764] | Inhibition percent [3]: 0.20
